Measurements reported in patent US11759455B2, “Substituted 1H-imidazo[4,5-b]pyridin-2(3H)-ones and their use as GLUN2B receptor modulators” (JANSSEN PHARMACEUTICA NV, priority 2016, dated 2023).
Where two headings read alike, the source gives them in different places.

Target: T1, human GluN1/GluN2B NMDA receptors (Homo sapiens, UniProt Q13224)
T1 construct: expressed in transfected cells
Experiment: Cell-based calcium flux (FLIPR) assay on cloned human NR1/NR2B ion channels expressed in mammalian cells (standard and HTS buffer variants);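 note: stable Tet-On inducible cell line, Ca2+ influx triggered by glutamate at about EC40 plus 10 µM glycine, fluorescent dye read-out over 5 min, normalized to control wells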

[1] = standard assay buffer (0.5 mM MgCl2 dye loading; 137 mM NaCl, 4 mM KCl assay buffer), human GluN1/GluN2B cells, read-out: NR2B IC50 (μM) standard assay
[2] = standard assay buffer (0.5 mM MgCl2 in dye loading buffer; 137 mM NaCl, 4 mM KCl in assay buffer), human GluN1/GluN2B, read-out: NR2B IC50 (μM) standard assay
[3] = HTS assay buffer (1.5 mM MgCl2 in dye loading buffer; 150 mM NaCl, 3 mM KCl in assay buffer), human GluN1/GluN2B, read-out: NR2B IC50 (μM) HTS assay

T1 sequence (Q13224 27-1484, other chains not shown): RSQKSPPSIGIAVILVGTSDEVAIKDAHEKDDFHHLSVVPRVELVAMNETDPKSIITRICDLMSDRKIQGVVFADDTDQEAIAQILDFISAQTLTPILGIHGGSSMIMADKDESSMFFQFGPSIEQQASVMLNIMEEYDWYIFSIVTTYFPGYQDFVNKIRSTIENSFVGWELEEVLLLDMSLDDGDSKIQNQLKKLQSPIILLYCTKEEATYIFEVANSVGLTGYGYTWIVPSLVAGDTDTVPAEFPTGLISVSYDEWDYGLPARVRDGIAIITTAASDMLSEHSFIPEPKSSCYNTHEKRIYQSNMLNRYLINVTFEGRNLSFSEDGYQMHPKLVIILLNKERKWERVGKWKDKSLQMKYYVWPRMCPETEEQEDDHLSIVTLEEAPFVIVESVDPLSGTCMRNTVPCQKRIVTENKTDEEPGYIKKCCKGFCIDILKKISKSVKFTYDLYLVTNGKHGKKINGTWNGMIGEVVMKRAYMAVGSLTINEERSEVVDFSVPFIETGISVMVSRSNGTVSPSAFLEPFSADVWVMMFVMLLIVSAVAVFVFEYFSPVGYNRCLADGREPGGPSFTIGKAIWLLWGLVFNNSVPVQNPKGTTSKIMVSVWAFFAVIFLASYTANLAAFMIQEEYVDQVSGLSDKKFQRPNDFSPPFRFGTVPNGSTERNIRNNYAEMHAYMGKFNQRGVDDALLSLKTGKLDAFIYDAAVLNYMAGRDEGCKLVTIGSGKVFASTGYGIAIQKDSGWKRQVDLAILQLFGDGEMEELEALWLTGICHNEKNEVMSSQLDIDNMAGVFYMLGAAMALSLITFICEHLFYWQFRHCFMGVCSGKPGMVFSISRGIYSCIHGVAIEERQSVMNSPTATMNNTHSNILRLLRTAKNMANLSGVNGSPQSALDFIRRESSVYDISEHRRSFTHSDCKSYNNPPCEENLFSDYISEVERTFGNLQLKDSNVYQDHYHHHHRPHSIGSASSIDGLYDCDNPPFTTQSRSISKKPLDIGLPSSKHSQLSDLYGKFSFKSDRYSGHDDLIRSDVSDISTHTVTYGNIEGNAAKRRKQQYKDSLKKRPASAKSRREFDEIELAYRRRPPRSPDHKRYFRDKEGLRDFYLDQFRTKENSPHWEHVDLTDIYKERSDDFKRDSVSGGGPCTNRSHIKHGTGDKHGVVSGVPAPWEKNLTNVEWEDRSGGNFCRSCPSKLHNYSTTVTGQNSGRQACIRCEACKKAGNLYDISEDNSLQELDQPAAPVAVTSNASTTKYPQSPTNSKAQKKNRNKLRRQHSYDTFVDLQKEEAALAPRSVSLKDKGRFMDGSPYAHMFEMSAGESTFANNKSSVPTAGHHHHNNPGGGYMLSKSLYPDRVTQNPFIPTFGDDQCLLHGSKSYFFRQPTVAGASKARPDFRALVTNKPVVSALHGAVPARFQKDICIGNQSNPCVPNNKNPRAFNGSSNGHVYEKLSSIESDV

Row | IC50 [1] | IC50 [2] | Structure (SMILES) | other results
1 | – | 0.19 µM | Cc1cccc(-c2cnc3c(c2)n(Cc2cncc(Cl)c2)c(=O)n3C)c1F [Example 371, 1-[(5-Chloro-3-pyridyl)methyl]-6-(2-fluoro-3-methyl-phenyl)-3-methyl-imidazo[4,5-b]pyridin-2-one] | –
2 | – | 0.017 µM | CCC(=O)Cn1c(=O)n(C)c2ncc(-c3ccc(F)c(C)c3)cc21 [Example 389, 6-(4-Fluoro-3-methyl-phenyl)-3-methyl-1-(2-oxobutyl)imidazo[4,5-b]pyridin-2-one] | –
3 | – | > 10 µM | CN(C)C(=O)Cn1c(=O)n(C)c2ncc(-c3cccnc3)cc21 [Example 429, N,N-Dimethyl-2-[3-methyl-2-oxo-6-(3-pyridyl)imidazo[4,5-b]pyridin-1-yl]acetamide] | –
4 | – | 0.041 µM | Cc1cccc(-c2cnc3c(c2)n(CC(=O)N(C)C)c(=O)n3C)c1F [Example 427, 2-[6-(2-Fluoro-3-methyl-phenyl)-3-methyl-2-oxo-imidazo[4,5-b]pyridin-1-yl]-N,N-dimethyl-acetamide] | –
5 | – | 0.19 µM | Cn1cc(Cn2c(=O)n(C)c3ncc(-c4cccc(C(F)(F)F)c4)cc32)cn1 [Example 551, 3-Methyl-1-[(1-methylpyrazol-4-yl)methyl]-6-[3-(trifluoromethyl)phenyl]imidazo[4,5-b]pyridin-2-one] | –
6 | – | 0.066 µM | CN(C)C(=O)Cn1c(=O)n(CF)c2ncc(-c3ccc(C(F)(F)F)s3)cc21 [Example 596, 2-[3-(Fluoromethyl)-2-oxo-6-[5-(trifluoromethyl)-2-thienyl]imidazo[4,5-b]pyridin-1-yl]-N,N-dimethyl-acetamide] | –
7 | – | 0.974 µM | Cc1c(F)ccc(-c2cnc3c(c2)n(CC(=O)N2CCC2)c(=O)n3CF)c1F [Example 595, 1-[2-(Azetidin-1-yl)-2-oxo-ethyl]-6-(2,4-difluoro-3-methyl-phenyl)-3-(fluoromethyl)imidazo[4,5-b]pyridin-2-one] | –
8 | – | 0.019 µM | CCC(=O)Cn1c(=O)n(C)c2ncc(-c3ccc(F)c(F)c3)cc21 [Example 390, 6-(3,4-Difluorophenyl)-3-methyl-1-(2-oxobutyl)imidazo[4,5-b]pyridin-2-one] | –

Second part, the compound before the results:

Row | Structure (SMILES) | IC50 [1] | IC50 [2] | other results
9 | COc1ncccc1Cn1c(=O)[nH]c2ncc(-c3cccc(C(F)(F)F)c3)cc21 [Example 22, 1-[(2-Methoxy-3-pyridyl)methyl]-6-[3-(trifluoromethyl)phenyl]-3H-imidazo[4,5-b]pyridin-2-one] | 26.7 µM | – | –
10 | CN(C)C(=O)Cn1c(=O)n(C)c2ncc(-c3cccc(C(F)(F)F)c3)cc21 [Example 419, N,N-Dimethyl-2-[3-methyl-2-oxo-6-[3-(trifluoromethyl)phenyl]imidazo[4,5-b]pyridin-1-yl]acetamide] | – | 0.047 µM | –
11 | O=C(Cn1c(=O)[nH]c2ncc(-c3cccc(C(F)(F)F)c3)cc21)N1CC2(CNC2)C1 [Example 207, 1-[2-(2,6-Diazaspiro[3.3]heptan-6-yl)-2-oxo-ethyl]-6-[3-(trifluoromethyl)phenyl]-3H-imidazo[4,5-b]pyridin-2-one] | 0.453 µM | – | –
12 | Cn1c(=O)n(CC(=O)N2CC(F)C2)c2cc(-c3cc(C(F)F)cs3)cnc21 [Example 118, 6-[4-(Difluoromethyl)-2-thienyl]-1-[2-(3-fluoroazetidin-1-yl)-2-oxo-ethyl]-3-methyl-imidazo[4,5-b]pyridin-2-one] | 0.02 µM | – | –
13 | Cc1cc(-c2cnc3[nH]c(=O)n(Cc4ccccn4)c3c2)ccc1F [Example 283, 6-(4-Fluoro-3-methyl-phenyl)-1-(2-pyridylmethyl)-3H-imidazo[4,5-b]pyridin-2-one] | 0.079 µM | – | –
14 | Cc1c(F)ccc(-c2cnc3c(c2)n(Cc2ccccn2)c(=O)n3C)c1F [Example 68, 6-(2,4-Difluoro-3-methyl-phenyl)-3-methyl-1-(2-pyridylmethyl)imidazo[4,5-b]pyridin-2-one] | 0.31 µM | – | –
15 | Cc1ccc(C(F)(F)F)cc1-c1cnc2[nH]c(=O)n(CCN3CC(F)C3)c2c1 [Example 185, 1-[2-(3-Fluoroazetidin-1-yl)ethyl]-6-[2-methyl-5-(trifluoromethyl)phenyl]-3H-imidazo[4,5-b]pyridin-2-one] | 2.13 µM | – | –
16 | Cc1cc(-c2cnc3[nH]c(=O)n(Cc4cncc(F)c4)c3c2)ccc1Cl [Example 306, 6-(4-Chloro-3-methyl-phenyl)-1-[(5-fluoro-3-pyridyl)methyl]-3H-imidazo[4,5-b]pyridin-2-one] | 0.086 µM | – | –
17 | Cc1csc(-c2cnc3c(c2)n(CC(=O)N(C)C)c(=O)n3C)c1 [Example 80, N,N-Dimethyl-2-[3-methyl-6-(4-methyl-2-thienyl)-2-oxo-imidazo[4,5-b]pyridin-1-yl]acetamide] | 0.03 µM | – | –
18 | O=c1[nH]c2ncc(-c3cccc(F)c3F)cc2n1Cc1cncc(F)c1 [Example 303, 6-(2,3-Difluorophenyl)-1-[(5-fluoro-3-pyridyl)methyl]-3H-imidazo[4,5-b]pyridin-2-one] | 0.03 µM | – | –
19 | COc1ccc(-c2cnc3[nH]c(=O)n(CC4CC4)c3c2)cc1F [Example 469, 1-(Cyclopropylmethyl)-6-(3-fluoro-4-methoxy-phenyl)-3H-imidazo[4,5-b]pyridin-2-one] | – | – | IC50 [3]: 0.944 µM
20 | O=C(Cn1c(=O)[nH]c2ncc(-c3cccc(C(F)(F)F)c3)cc21)N1CCOCC1 [Example 204, 1-(2-Morpholino-2-oxo-ethyl)-6-[3-(trifluoromethyl)phenyl]-3H-imidazo[4,5-b]pyridin-2-one] | 0.037 µM | – | –
21 | Cc1cc(F)ccc1-c1cnc2[nH]c(=O)n(CCN3CCC3)c2c1 [Example 151, 1-[2-(Azetidin-1-yl)ethyl]-6-(4-fluoro-2-methyl-phenyl)-3H-imidazo[4,5-b]pyridin-2-one] | 0.115 µM | – | –
22 | Cc1cccc(C)c1-c1cnc2[nH]c(=O)n(CCN3CCC3)c2c1 [Example 157, 1-[2-(Azetidin-1-yl)ethyl]-6-(2,6-dimethylphenyl)-3H-imidazo[4,5-b]pyridin-2-one] | 1.97 µM | – | –
23 | Cn1c(=O)n(CC(=O)N2CCC2)c2cc(-c3csc(C(F)(F)F)n3)cnc21 [Example 107, 1-[2-(Azetidin-1-yl)-2-oxo-ethyl]-3-methyl-6-[2-(trifluoromethyl)thiazol-4-yl]imidazo[4,5-b]pyridin-2-one] | 0.087 µM | – | –
24 | Cc1cc(-c2cnc3[nH]c(=O)n(Cc4cncc(F)c4)c3c2)ccc1F [Example 299, 6-(4-Fluoro-3-methyl-phenyl)-1-[(5-fluoro-3-pyridyl)methyl]-3H-imidazo[4,5-b]pyridin-2-one] | 0.019 µM | – | –
25 | COc1ccc(-c2cnc3[nH]c(=O)n(CC4CC4)c3c2)c(OC)c1 [Example 465, 1-(Cyclopropylmethyl)-6-(2,4-dimethoxyphenyl)-3H-imidazo[4,5-b]pyridin-2-one] | – | – | IC50 [3]: 14.4 µM
26 | Cc1cc(F)ccc1-c1cnc2[nH]c(=O)n(CCN3CCCC3)c2c1 [Example 177, 6-(4-Fluoro-2-methyl-phenyl)-1-(2-pyrrolidin-1-ylethyl)-3H-imidazo[4,5-b]pyridin-2-one] | 0.502 µM | – | –
27 | Cc1cc(-c2cnc3[nH]c(=O)n(CCN4CCC4)c3c2)ccc1F [Example 156, 1-[2-(Azetidin-1-yl)ethyl]-6-(4-fluoro-3-methyl-phenyl)-3H-imidazo[4,5-b]pyridin-2-one] | 0.039 µM | – | –
28 | Cn1c(=O)n(Cc2ccncc2)c2cc(-c3ccc(F)c(F)c3)cnc21 [Example 58, 6-(3,4-Difluorophenyl)-3-methyl-1-(4-pyridylmethyl)imidazo[4,5-b]pyridin-2-one] | 1.9 µM | – | –
